Test results taken from PubChem BioAssay (NCI).
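Protocol summary: plate cells (96-well), add compound at 5 concentrations, incubate 48 h, interpolate endpoints linearly. At the TGI there is no net growth.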

test system: MDA-N; experiment: NCI-60 cell line screen, 48 h

Row | SMILES | TGI [µM]
1 | CC1CC(N2CCOCC2)=Nc2ccccc2N1C (stereo not drawn) | > 100
2 | CCOC1C=CC(=O)C(CO)O1 (stereo not drawn) | 31.5
3 | CC(C)C(Br)CCC1=CCC(Br)(Br)C1 (stereo not drawn) | 10.4
4 | Cc1c2cccc-2c2cc(O)c3ccccc3c2n1-c1ccc(N(C)C)cc1 | 36.9
5 | O=CC(I)=C(c1ccccc1)c1ccccc1 | 35.4
6 | c1c[nH]c(-c2cccc3nsnc23)c1 | > 100
7 | Cn1c2ccccc2c2ccc3c(c21)C(=O)c1ccc2c4ccccc4n(C)c2c1C3=O | > 100
8 | COc1ccc(C)cc1N1C(=O)C2ON(Cc3ccc(CC(N)=O)cc3)C(c3c4ccccc4c(Cl)c4ccccc34)C2C1=O (stereo not drawn) | 33
9 | NS(=O)(=O)c1nnc(NC(=O)N(c2ccccc2)c2ccccc2)s1 | 88.3
10 | COC(=O)c1ccccc1C1CN=NC12Cc1c(ccc(C)c1C)C2=O (stereo not drawn) | > 100
11 | CN(C)CCN(c1ccccn1)c1ccccn1 | > 100
12 | O=C(O)c1nc2ccc(C(F)(F)F)cc2[nH]c1=O | > 100
13 | CN(CCN1CCCC1)C1CCc2cc(Cl)c(Cl)cc2C1 (stereo not drawn) | 26.2
14 | COC(=O)/C=C(\C)CC/C=C(\C)CCC1OC1(C)C (stereo not drawn) | 21.9
15 | CC(C)NC(=O)OCc1c(COC(=O)NC(C)C)n(C)c2c1ccc1sccc12 | 42.8
16 | O=C(CC(NC(=O)C(F)(F)F)C(=O)O)OCc1ccccc1 (stereo not drawn) | > 100
17 | COc1cccc(C2c3cc4c(cc3OC(O)C2C)OCO4)c1OC (stereo not drawn) | 58.3

test system: CCRF-CEM leukemia; experiment: NCI-60 cell line screen, 48 h

Row | SMILES | TGI [µM]
18 | O=C(ON=C1c2ccccc2C(Br)C(Br)c2ccccc21)c1ccccc1 (stereo not drawn) | 2.05
19 | CC(=O)c1ccc(Oc2c3ccccc3nc3ccccc23)cc1 | 8.43
20 | C[n+]1cc2cc(O)c(O)cc2c2ccc3cc(O)c(O)cc3c21 | 6.17
21 | COc1ccc2c(c1)c1c(n2CCN2CCCCC2)-c2cccc(OC)c2CC1 | 27.3
22 | COc1ccc2nc(NC(=O)/C(C#N)=C/c3ccccc3)sc2c1 | 59.7
23 | Cc1c(C)n(-c2ccccc2)c2nc(S(C)=O)nc(S(C)=O)c12 (stereo not drawn) | 3.88
24 | CC1(C)CC(=O)C2=C(C1)C(c1ccccc1Cl)C1C(=O)CC(C)(C)CC1(O)O2 (stereo not drawn) | > 94.8
25 | Cc1ccc2c(c1C)C(=O)C1(Cc3cc4c(cc3C1=O)CCC4)C2 (stereo not drawn) | > 100
26 | C[C@@H]1CC[C@@]2(C)C(C(=O)O)=CCCC2[C@@]1(C)CC(=O)c1ccoc1 (stereo partly drawn) | > 25
27 | O=C(CCc1cc(O)cc(O)c1)NCCc1cc(OCc2ccccc2)cc(OCc2ccccc2)c1 | 50.8
28 | c1ccc(C2=NC3OC2c2ccccc23)cc1 (stereo not drawn) | > 10
29 | O=c1oc2ccc3ccccc3c2cc1-c1cn2ccsc2n1 | 51.6
30 | CCOC(=O)CSc1nc(N)c2c(-c3ccccc3)c3c(nc2n1)CCCC3 | > 100
31 | COC(=O)/C=C(/C=C1/C(C#N)=C(N)N(c2ccc(Cl)cc2)C1(C)/C(=C\C(=O)OC)C(=O)OC)C(=O)OC (stereo not drawn) | > 100
32 | Cc1ccccc1-c1nc2c(N)nc(N)nc2nc1N | > 100
33 | CCOC(=O)c1c(N2CCCC2)[nH]c(=O)c(C(c2ccc(OC)cc2)c2c(O)c(C(=O)OCC)c(N3CCCC3)[nH]c2=O)c1O | > 100
34 | CC1CC(N2CCOCC2)=Nc2ccccc2N1C (stereo not drawn) | > 100

Row | SMILES | TGI [µM]
35 | CCOC1C=CC(=O)C(CO)O1 (stereo not drawn) | 6.07
36 | CC(C)C(Br)CCC1=CCC(Br)(Br)C1 (stereo not drawn) | > 100
37 | Cc1c2cccc-2c2cc(O)c3ccccc3c2n1-c1ccc(N(C)C)cc1 | 32.8
38 | O=CC(I)=C(c1ccccc1)c1ccccc1 | > 69.9
39 | c1c[nH]c(-c2cccc3nsnc23)c1 | > 100
40 | Cn1c2ccccc2c2ccc3c(c21)C(=O)c1ccc2c4ccccc4n(C)c2c1C3=O | > 100
41 | COc1ccc(C)cc1N1C(=O)C2ON(Cc3ccc(CC(N)=O)cc3)C(c3c4ccccc4c(Cl)c4ccccc34)C2C1=O (stereo not drawn) | > 100
42 | NS(=O)(=O)c1nnc(NC(=O)N(c2ccccc2)c2ccccc2)s1 | > 100
43 | COC(=O)c1ccccc1C1CN=NC12Cc1c(ccc(C)c1C)C2=O (stereo not drawn) | > 100
44 | CN(C)CCN(c1ccccn1)c1ccccn1 | > 100
45 | O=C(O)c1nc2ccc(C(F)(F)F)cc2[nH]c1=O | > 100
46 | CN(CCN1CCCC1)C1CCc2cc(Cl)c(Cl)cc2C1 (stereo not drawn) | > 100
47 | COC(=O)/C=C(\C)CC/C=C(\C)CCC1OC1(C)C (stereo not drawn) | 21.3
48 | CC(C)NC(=O)OCc1c(COC(=O)NC(C)C)n(C)c2c1ccc1sccc12 | > 100
49 | O=C(CC(NC(=O)C(F)(F)F)C(=O)O)OCc1ccccc1 (stereo not drawn) | > 100
50 | COc1cccc(C2c3cc4c(cc3OC(O)C2C)OCO4)c1OC (stereo not drawn) | 9.6

test system: SNB-19 CNS; experiment: NCI-60 cell line screen, 48 h

Row | SMILES | TGI [µM]
51 | O=C(ON=C1c2ccccc2C(Br)C(Br)c2ccccc21)c1ccccc1 (stereo not drawn) | 62.1
52 | CC(=O)c1ccc(Oc2c3ccccc3nc3ccccc23)cc1 | 37.8
53 | C[n+]1cc2cc(O)c(O)cc2c2ccc3cc(O)c(O)cc3c21 | 16.5
54 | COc1ccc2c(c1)c1c(n2CCN2CCCCC2)-c2cccc(OC)c2CC1 | 29.7
55 | COc1ccc2nc(NC(=O)/C(C#N)=C/c3ccccc3)sc2c1 | > 100
56 | Cc1c(C)n(-c2ccccc2)c2nc(S(C)=O)nc(S(C)=O)c12 (stereo not drawn) | 31.3
57 | CC1(C)CC(=O)C2=C(C1)C(c1ccccc1Cl)C1C(=O)CC(C)(C)CC1(O)O2 (stereo not drawn) | > 100
58 | Cc1ccc2c(c1C)C(=O)C1(Cc3cc4c(cc3C1=O)CCC4)C2 (stereo not drawn) | > 100
59 | C[C@@H]1CC[C@@]2(C)C(C(=O)O)=CCCC2[C@@]1(C)CC(=O)c1ccoc1 (stereo partly drawn) | > 25
60 | O=C(CCc1cc(O)cc(O)c1)NCCc1cc(OCc2ccccc2)cc(OCc2ccccc2)c1 | 7.17
61 | c1ccc(C2=NC3OC2c2ccccc23)cc1 (stereo not drawn) | > 10
62 | O=c1oc2ccc3ccccc3c2cc1-c1cn2ccsc2n1 | > 100
63 | CCOC(=O)CSc1nc(N)c2c(-c3ccccc3)c3c(nc2n1)CCCC3 | > 100
64 | COC(=O)/C=C(/C=C1/C(C#N)=C(N)N(c2ccc(Cl)cc2)C1(C)/C(=C\C(=O)OC)C(=O)OC)C(=O)OC (stereo not drawn) | > 100
65 | Cc1ccccc1-c1nc2c(N)nc(N)nc2nc1N | > 100
66 | CCOC(=O)c1c(N2CCCC2)[nH]c(=O)c(C(c2ccc(OC)cc2)c2c(O)c(C(=O)OCC)c(N3CCCC3)[nH]c2=O)c1O | > 100
67 | CC1CC(N2CCOCC2)=Nc2ccccc2N1C (stereo not drawn) | > 100

Row | SMILES | TGI [µM]
68 | CCOC1C=CC(=O)C(CO)O1 (stereo not drawn) | 42.9
69 | CC(C)C(Br)CCC1=CCC(Br)(Br)C1 (stereo not drawn) | 32
70 | Cc1c2cccc-2c2cc(O)c3ccccc3c2n1-c1ccc(N(C)C)cc1 | 30
71 | O=CC(I)=C(c1ccccc1)c1ccccc1 | 30.1
72 | c1c[nH]c(-c2cccc3nsnc23)c1 | > 100
73 | Cn1c2ccccc2c2ccc3c(c21)C(=O)c1ccc2c4ccccc4n(C)c2c1C3=O | > 100
74 | COc1ccc(C)cc1N1C(=O)C2ON(Cc3ccc(CC(N)=O)cc3)C(c3c4ccccc4c(Cl)c4ccccc34)C2C1=O (stereo not drawn) | > 100
75 | NS(=O)(=O)c1nnc(NC(=O)N(c2ccccc2)c2ccccc2)s1 | > 100
76 | COC(=O)c1ccccc1C1CN=NC12Cc1c(ccc(C)c1C)C2=O (stereo not drawn) | > 100
77 | CN(C)CCN(c1ccccn1)c1ccccn1 | > 100
78 | O=C(O)c1nc2ccc(C(F)(F)F)cc2[nH]c1=O | > 100
79 | CN(CCN1CCCC1)C1CCc2cc(Cl)c(Cl)cc2C1 (stereo not drawn) | 38.7
80 | COC(=O)/C=C(\C)CC/C=C(\C)CCC1OC1(C)C (stereo not drawn) | > 75
81 | CC(C)NC(=O)OCc1c(COC(=O)NC(C)C)n(C)c2c1ccc1sccc12 | > 100
82 | O=C(CC(NC(=O)C(F)(F)F)C(=O)O)OCc1ccccc1 (stereo not drawn) | > 100
83 | COc1cccc(C2c3cc4c(cc3OC(O)C2C)OCO4)c1OC (stereo not drawn) | 74.2
